Key:
[1] = biological target: Fibroblast growth factor receptor 3 (Homo sapiens) (UniProt P22607); conditions: Compound concentration 20.0 uM, Protein concentration 2.0 uM, Result type QC Liability
Description: Thermal Shift Assay. Domain: start/stop: P449-E759

Peregrin (Homo sapiens) = biological target: T1, Peregrin (Homo sapiens) (UniProt P55201); conditions: Compound concentration 20.0 uM, Protein concentration 2.0 uM, Result type QC Liability
T1 sequence (whole entry): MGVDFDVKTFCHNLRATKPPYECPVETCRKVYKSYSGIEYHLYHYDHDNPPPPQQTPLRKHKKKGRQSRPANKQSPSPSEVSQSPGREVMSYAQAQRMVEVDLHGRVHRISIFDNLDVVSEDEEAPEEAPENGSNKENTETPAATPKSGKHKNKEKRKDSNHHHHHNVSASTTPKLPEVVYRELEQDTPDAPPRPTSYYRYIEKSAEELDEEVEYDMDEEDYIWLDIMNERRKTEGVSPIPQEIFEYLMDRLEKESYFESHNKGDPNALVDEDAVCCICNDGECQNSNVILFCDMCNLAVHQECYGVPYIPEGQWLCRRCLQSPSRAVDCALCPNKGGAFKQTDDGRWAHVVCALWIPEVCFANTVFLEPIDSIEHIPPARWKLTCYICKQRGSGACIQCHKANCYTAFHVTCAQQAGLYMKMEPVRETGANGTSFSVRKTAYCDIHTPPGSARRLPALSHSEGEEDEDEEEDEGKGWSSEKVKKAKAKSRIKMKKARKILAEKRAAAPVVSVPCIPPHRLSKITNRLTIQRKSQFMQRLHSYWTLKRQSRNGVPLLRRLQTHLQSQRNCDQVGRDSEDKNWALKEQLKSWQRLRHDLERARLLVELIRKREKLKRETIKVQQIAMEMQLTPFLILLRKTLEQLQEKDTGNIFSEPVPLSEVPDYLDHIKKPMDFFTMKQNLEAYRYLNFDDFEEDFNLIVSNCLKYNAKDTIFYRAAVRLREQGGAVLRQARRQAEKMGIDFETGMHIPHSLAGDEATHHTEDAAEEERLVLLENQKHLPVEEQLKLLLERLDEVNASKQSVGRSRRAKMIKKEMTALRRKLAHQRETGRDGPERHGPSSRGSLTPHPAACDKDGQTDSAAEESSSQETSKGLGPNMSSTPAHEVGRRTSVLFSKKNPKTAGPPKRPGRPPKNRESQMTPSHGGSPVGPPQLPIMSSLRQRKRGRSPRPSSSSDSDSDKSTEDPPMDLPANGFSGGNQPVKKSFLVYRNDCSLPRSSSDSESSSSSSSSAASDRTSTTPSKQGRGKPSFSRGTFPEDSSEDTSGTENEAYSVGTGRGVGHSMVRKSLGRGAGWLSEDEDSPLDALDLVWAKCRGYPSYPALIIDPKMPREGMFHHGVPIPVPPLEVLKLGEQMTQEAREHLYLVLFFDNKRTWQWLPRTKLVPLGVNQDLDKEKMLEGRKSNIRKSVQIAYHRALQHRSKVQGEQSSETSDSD

Chain of Fibroblast growth factor receptor 3 (Homo sapiens) (P22607 23-806 limits assumed): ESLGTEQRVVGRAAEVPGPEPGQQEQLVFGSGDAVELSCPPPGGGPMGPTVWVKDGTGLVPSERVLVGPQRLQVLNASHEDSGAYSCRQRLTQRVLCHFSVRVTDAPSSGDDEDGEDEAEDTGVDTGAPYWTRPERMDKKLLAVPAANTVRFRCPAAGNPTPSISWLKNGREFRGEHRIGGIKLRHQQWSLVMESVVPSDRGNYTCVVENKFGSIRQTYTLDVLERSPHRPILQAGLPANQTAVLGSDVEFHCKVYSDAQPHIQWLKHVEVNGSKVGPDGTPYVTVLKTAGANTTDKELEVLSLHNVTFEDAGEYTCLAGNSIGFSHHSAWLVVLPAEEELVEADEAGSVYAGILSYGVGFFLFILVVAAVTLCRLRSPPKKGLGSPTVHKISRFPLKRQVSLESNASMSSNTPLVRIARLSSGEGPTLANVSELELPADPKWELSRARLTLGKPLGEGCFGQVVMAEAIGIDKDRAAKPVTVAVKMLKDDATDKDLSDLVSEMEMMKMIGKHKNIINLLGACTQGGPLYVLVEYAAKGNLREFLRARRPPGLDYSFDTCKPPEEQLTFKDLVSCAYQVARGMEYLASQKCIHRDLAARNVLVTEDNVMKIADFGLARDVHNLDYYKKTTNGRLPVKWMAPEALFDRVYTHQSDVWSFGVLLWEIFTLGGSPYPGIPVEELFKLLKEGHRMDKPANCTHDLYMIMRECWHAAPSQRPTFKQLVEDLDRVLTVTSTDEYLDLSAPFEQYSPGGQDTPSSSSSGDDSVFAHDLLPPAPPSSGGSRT

Row | SMILES | ΔTm [1] [°C] | ΔTm (Peregrin (Homo sapiens)) [°C] | ΔTm ([1]; tested as the 2H-labelled form) [°C] | ΔTm (Peregrin (Homo sapiens); tested as the 2H-labelled form) [°C]
1 | C=CC(=O)Nc1cc(-c2nn(C3CCC(N4CCN(C(C)=O)CC4)CC3)c3ncnc(N)c23)ccc1Oc1ccccc1 (stereo unspecified) | 1.74 | -1.27 |  | 
2 | CC1CCN(C(=O)[C@@H](CCn2cccc2C#N)NS(=O)(=O)c2cccc3[nH]ccc23)CC1 | 0.36 | -3.16 |  | 
3 | C[C@@H](COCCC(=O)N1CCN(c2ncc(C(F)(F)F)cn2)CC1)Nc1cn[nH]c(=O)c1C(F)(F)F | 0.48 | -0.15 |  | 
4 | CCn1c(=O)c2c(C)c(C(=O)N3CCC(O)CC3)sc2n(CCC(F)(F)F)c1=O | 0.45 | -1.95 |  | 
5 | Cc1nccc(COC(=O)N2C[C@@H]3[C@@H](CNC(=O)c4ccc5[nH]nnc5c4)[C@@H]3C2)n1 | 0.43 | -2.37 |  | 
6 | CNc1nc(-c2ccc3c(N)n[nH]c3c2)cc(N2C[C@@H](C(=O)NC3CCCCC3)CC[C@H]2C)n1 | 2.13 | -2.05 |  | 
7 | C[C@H](CCC(=O)O)[C@H]1CC[C@H]2[C@@H]3[C@@H](O)C[C@@H]4C[C@H](O)CC[C@]4(C)[C@H]3CC[C@]12C | 0.96 | -1.31 |  | 
8 | COc1cc(N[C@@H]2CCCC[C@]2(O)C(F)(F)F)ccc1F | 0.65 | -1.55 |  | 
9 | CC[C@@H](CO)Nc1nc(Nc2cccc(NC(=O)C(C)(C)C)c2)ncc1F | 2.58 | -1.26 |  | 
10 | COc1cc(C(=O)NC2CCN(C)CC2)ccc1Nc1ncc(C(F)(F)F)c(NCc2ccc(C)cc2N(C)S(C)(=O)=O)n1 | 2.55 | -1.4 |  | 
11 | CN(C)CC#Cc1ccc2[nH]c3c(c2c1)-c1nc(N)ncc1CCC3 | 3.51 | -0.87 |  | 
12 | COc1cc(C(=O)NC2CCN(C)CC2)ccc1Nc1ncc2c(n1)N(C1CCCC1)CC(F)(F)C(=O)N2C | 0.42 | 1.14 |  | 
13 | O=C(O)Cc1cc(I)c(Oc2ccc(O)c(I)c2)c(I)c1 | -0.28 | -2.62 |  | 
14 | COCCCS(=O)(=O)c1cc(C)c(-c2ccc(F)c3c2CC[C@H]3Oc2ccc3c(c2)OC[C@H]3CC(=O)O)c(C)c1 | 0.81 | -4.61 |  | 
15 | CNC(=O)c1nnc(NC(=O)C2CC2)cc1Nc1cccc(-c2ncn(C)n2)c1OC |  |  | 1.05 | -1.46
16 | Cn1cc(NC(=O)c2ccc3nc4n(c3c2)CCCNC4=O)nc1C(=O)NC1CCCC1 | 1.76 | -0.88 |  | 
17 | Nc1ncc2c(n1)-c1c([nH]c3ccc(C4CC4)cc13)CCCC2 | 0.81 | -1.74 |  | 
18 | Cc1cc(Cn2c(N3CC4(CNC4)C3)nc3cc(Cl)cc(N4CCN(C)CC4)c32)cc(C)c1F | 1.32 | -2.07 |  | 
19 | CCCCC(C)(O)C/C=C/[C@H]1[C@H](O)CC(=O)[C@@H]1CCCCCCC(=O)O (stereo partly specified) | 0.43 | -1.2 |  | 
20 | N#C/C(=C\c1ccc(O)c(O)c1)C(=O)OCCc1cccs1 | 1.51 | -0.27 |  | 
21 | Cc1nsc(Nc2cnc(C(F)(F)F)cn2)c1C(=O)Nc1ccc(O[C@H]2CCCN(CC(F)(F)F)C2)nc1 | 1.39 | -3.38 |  | 
22 | Cc1cc(-c2cnc(N)c3c(-c4ccc5scnc5c4)csc23)n(C)n1 | 0.89 | -1.57 |  | 
23 | Cc1cc2nc(N3CCC(C(=O)NC4CCCC4)CC3)n(C(C)C)c2cc1C | 0.35 | -3.41 |  | 
24 | COc1cc(C(=O)NCCOCCOCCOCC(=O)N[C@H](C(=O)N2C[C@H](O)C[C@H]2C(=O)NCc2ccc(-c3scnc3C)cc2)C(C)(C)C)ccc1Nc1ncc(C(F)(F)F)c(Oc2cccc3c2C(=O)CC3)n1 | 1.52 | -0.82 |  | 
25 | CC(C)(C)c1cc(NC(=O)c2csc(Nc3ccccn3)n2)no1 | 0.72 | -2.33 |  | 
26 | N=C(N)NCCC[C@H](NC(=O)CC1(CC(=O)N2CCN(C3c4ccccc4NC(=O)c4ccccc43)CC2)CCCC1)C(=O)NCCn1c(=O)n(-c2ccccc2)n(-c2ccccc2)c1=O (stereo partly specified) | -5.62 | -2.29 |  | 
27 | N[C@@H]1CCCN(c2c(/C=C3\SC(=O)NC3=O)cccc2-c2ccccc2)C1 | 0.95 | -2.04 |  | 
28 | CC1(C)CCC(CN2CCN(c3ccc(C(=O)NS(=O)(=O)c4ccc(NCC5CCOCC5)c([N+](=O)[O-])c4)c(Oc4cnc5[nH]ccc5c4)c3)CC2)=C(c2ccc(Cl)cc2)C1 | 1.11 | -1.4 |  | 
29 | c1ccc(C2CCN(c3cnc4c(N5CCOCC5)nccn34)CC2)cc1 | 0.73 | -0.86 |  | 
30 | CC(C)S(=O)(=O)c1ccccc1Nc1nc(N[C@@H]2CCCN(CCCCCCCNC(=O)COc3cccc4c3C(=O)N(C3CCC(=O)NC3=O)C4=O)C2)ncc1Cl (stereo partly specified) | 7.81 | 0.63 |  | 

Results, then the molecule that gave them:

Row | ΔTm [1] [°C] | ΔTm (Peregrin (Homo sapiens)) [°C] | ΔTm ([1]; tested as the 2H-labelled form) [°C] | ΔTm (Peregrin (Homo sapiens); tested as the 2H-labelled form) [°C] | SMILES
31 | 0.79 | 0.22 |  |  | NC1(c2ccc(-c3nc4c(O)ccnn4c3-c3ccccc3)cc2)CCC1
32 | 0.81 | -2.2 |  |  | Cn1c(C(=O)N[C@@H](CO)c2ccc(C(=O)O)cc2)cc2cc(Cl)ccc21
33 | 0.81 | 0.07 |  |  | CN(C)[C@H]1CCc2nc(NC(=O)c3cccc(Cn4cc(-c5ccc(C#N)cc5)cn4)c3)sc2C1
34 | 0.47 | -2.86 |  |  | CC(C)(C)C(=O)NCc1ccc(Cl)c(C(=O)Nc2ncc[nH]2)c1
35 | 0.22 | -2.22 |  |  | COc1cc(N2CCN(C)CC2)ccc1Nc1ncc2c(n1)N(C)c1ccccc1C(=O)N2CC(F)(F)F
36 | 1.75 | -1.65 |  |  | COc1cc2ncnc(Nc3ccc4c(cnn4Cc4ccccc4)c3)c2cc1OC
37 | 0.87 | 0.11 |  |  | CC(C)c1cnc(NC(=O)Cc2ccccc2)s1
38 | -1.51 | -1.44 |  |  | C[S+]([O-])c1ccc(-c2nc(-c3cccc(I)c3)c(-c3ccncc3)[nH]2)cc1 (stereo unspecified)
39 | -0.75 | -8.11 |  |  | O=C(Nc1cccc(C(F)(F)F)c1)c1cccc(-n2cc(-c3ccco3)nn2)c1
40 | 0.88 | -0.13 |  |  | CC(C)(C)OC(=O)CN(Cc1ccc(Cl)cc1)Cc1ccc([N+](=O)[O-])s1
41 | 0.37 | -1.46 |  |  | Cc1cc(=O)oc2cc(NC(=O)[C@H](Cc3ccc(I)cc3)NC(=O)[C@H]3N[C@@H]4CC[C@H]3C4)ccc12
42 | 0.77 | -0.19 |  |  | CCCCCNC(=O)N1CCC(CN(Cc2ccc(Cl)cc2)Cc2ccc([N+](=O)[O-])s2)C1 (stereo unspecified)
43 | 0.39 | -3.24 |  |  | CC(C)Oc1ccc(Cc2ccc(NC3=NCCN3)cc2)cc1
44 | 3.97 | -0.66 |  |  | CNC(=O)c1ccc2c(c1)NC(=O)/C2=C(\Nc1ccc(CN2CCCCC2)cc1)c1ccccc1
45 | 3.17 | 4.54 |  |  | COc1cccc(Cn2cc(C(=O)Nc3ccc(C)c(S(=O)(=O)N4CCOCC4)c3)c(-c3ccc(C)cc3)n2)c1
46 | 0.57 | -2.38 |  |  | Cc1c(N2CCNCC2)nc2ccc(Br)cc2c1C(=O)NC[C@H](CCC(=O)O)c1ccccc1Cl
47 | 0.46 | -2 |  |  | N=C(N)NCCC[C@@H](NC(=O)C(c1ccccc1)c1ccccc1)C(=O)NCc1ccc(CNC(N)=O)cc1
48 | 0.69 | -2.47 |  |  | CCc1nc(C2CCC2)n2nc(-c3ccccc3)[nH]c(=O)c12
49 | -0.1 | -1.54 |  |  | CC[C@H](Nc1c(C#N)c(-c2ccc(-c3cccc(C)c3F)cc2)nc2cnccc12)C(=O)O
50 | -0.36 | -3.03 |  |  | O=C(O)CCCCN(CCc1cc(F)ccc1OCc1ccc(-c2ccc(C(F)(F)F)cc2)cc1)Cc1ccc(C(=O)O)cc1
51 | 3.6 | -1.63 |  |  | CCS(=O)(=O)c1ccc(OC)c(Nc2ncc(-c3cccc(F)c3)o2)c1
52 | 3.37 | -2.48 |  |  | CN(C)c1ccc(-c2cc3ncccc3c(OCCCCO)n2)cc1
53 | 0.79 | -1.68 |  |  | NCCCc1c(C(=O)O)[nH]c2ccc(C(=O)Nc3ccccc3)cc12
54 | 0.68 | -3.14 |  |  | Cc1ccc(NC(=O)c2ccc(CN3CC[C@H](N(C)C)C3)c(C(F)(F)F)c2)cc1Nc1nccc(-c2cncnc2)n1
55 | -0.48 | -6.64 |  |  | COc1ccc(-c2c(-c3ccccc3)oc3ncnc(O[C@H](C)CCCCC(=O)O)c23)cc1
56 | 0.58 | -2.03 |  |  | C[C@@H]1CC(=O)N(C2CC2)N=C1c1ccc(NC(=O)N2Cc3ccncc3C2)cc1
57 | 6.61 | -1.36 |  |  | COC(=O)c1ccc2c(c1)NC(=O)/C2=C(\Nc1ccc(-c2nccn2C)cc1)c1ccccc1
58 | 1.46 | -0.02 |  |  | CC(C)(C)c1cc(NC(=O)c2csc(Nc3ccc(Cl)cc3)n2)no1
